Tests used:
[1] = target: N. kaouthia crude venom hyaluronidase; assay: Hyaluronidase activity assay, N. kaouthia crude venom; type: biochemical, Naja naja kaouthia; settings: for Effect on N. kaouthia venom hyaluronidase activity (in words): venom pre-incubated 5-10 minutes with increasing concentrations, Example 2
Method: (§1) Hyaluronidase activity was assessed using the Enzymatic Assay of Hyaluronidase (3.2.1.35) protocol from Sigma Aldrich. Briefly, equal volumes of venom were incubated with 0.03% hyaluronic acid solution (0.03% (w/v) hyaluronic acid in 300 mM sodium phosphate (approximately pH 5.35)) for 1.5 hours at 37° C. A reaction aliquot was then added to a 5-fold volume of acidic albumin solution (24 mM sodium acetate, 70 mM acetic acid, 0.1% BSA adjusted to approximately pH 3.75), allowed to stand for 10 minutes, and then absorbance at 600 nm was measured. Data was converted to percent transmission (% T) and adjusted for background signals. Venom hyaluronidase activities were determined by creating a standard curve with bovine testes hyaluronidase.
(§2) For inhibition experiments, 6.75 μg N. kaouthia or 15 μg V. russelli venom was pre-incubated with the specified spreading factor inhibitor(s) for 5-10 minutes before adding an equal volume of the reaction to the hyaluronic acid solution. Data was converted to % T, adjusted for background signals, and then normalized to the venom-only controls.
(§3) Data are shown as the mean and standard deviation (SD) of at least duplicate readings. The half maximal inhibitory concentration (IC50) values were determined using GraphPad Prism. Table 1 summarizes the inhibitory activity of various spreading factor inhibitors for N. kaouthia and V. russelli crude venom extracts.
(§4) Snake venom samples were incubated with increasing concentrations of sodium aurothiomalate and/or doxycycline for 5-10 minutes prior to assaying the venom hyaluronidase, gelatinase, and PLA2 activities. As observed in Example 1, sodium aurothiomalate inhibited N. kaouthia and V. russeiii venom hyaluronidase activities, whereas doxycycline inhibited the venom gelatinase and PLA2 activities.

[2] = target: V. russelli crude venom hyaluronidase; assay: Hyaluronidase activity assay, V. russelli crude venom; type: biochemical, Vipera russelli; settings: for Effect on V. russelli venom hyaluronidase activity (in words): venom pre-incubated 5-10 minutes with increasing concentrations, Example 2
Method: as §1, §2, §3, §4

[3] = target: N. kaouthia crude venom gelatinase; assay: Gelatinase activity assay (EnzChek), N. kaouthia crude venom; type: biochemical, Naja naja kaouthia
Method: (§5) EnzChek® Gelatinase/Collagenase assay kits were used according to the manufacturer's recommendations. Briefly, equal volumes of venom solutions were incubated with 1.0 mg/mL DQ gelatin and fluorometric analysis was performed for at least three hours, using excitation and emission wavelengths of 485(20) nm and 528(20) nm, respectively. Venom activity was determined by creating a standard curve with Clostridium histolyticum collagenase activity.
(§6) For inhibition experiments, 30 μg N. kaouthia or V. russelli venom was pre-incubated with the specified spreading factor inhibitor(s) for 5-10 minutes before adding an equal volume of the reaction to the 1.0 mg/mL DQ gelatin solution. Fluorometric readings were measured over the course of five hours, with the five hour time points being used to determine the percent inhibition. Data was adjusted for background signals and then normalized to the venom-only controls.
as §3, §4

[4] = target: V. russelli crude venom gelatinase; assay: Gelatinase activity assay (EnzChek), V. russelli crude venom; type: biochemical, Vipera russelli
Method: as §5, §6, §3, §4

[5] = tested on: N. kaouthia crude venom PLA2; assay: Phospholipase A2 activity assay (EnzChek), N. kaouthia crude venom; type: biochemical, Naja naja kaouthia; settings: for Effect on N. kaouthia venom PLA2 activity (in words): venom pre-incubated 5-10 minutes with increasing concentrations, Example 2; for IC50 / PLA2 ≥90% inhibition (concentration), N. kaouthia venom: 0.4 μg venom, 10 minute time point, Example 1
Method: (§7) EnzChek® Phospholipase A 2 assay kits were used according to the manufacturer's recommendations. Briefly, equal volumes of venom solutions were incubated with PLA2 substrate and fluorometric analysis was performed over the course of 20 minutes. Venom activity was determined by creating a standard curve based upon PLA2 from honey bee venom.
(§8) For inhibition experiments, 0.4 μg N. kaouthia or 0.2 μg V. russelli venom was pre-incubated with the specified spreading factor inhibitor(s) for 5-10 minutes before adding the reaction to an equal volume of PLA2 substrate. Fluorometric analysis was performed over 20 minutes, with the 10 minute time point values being used to determine the percent inhibition. Background values were subtracted from all samples, and data was normalized to the venom-only controls. Excitation and emission wavelengths for these experiments were 485(20) nm and 528(20) nm, respectively.
as §3, §4

[6] = tested on: V. russelli crude venom PLA2; assay: Phospholipase A2 activity assay (EnzChek), V. russelli crude venom; type: biochemical, Vipera russelli; settings: for Effect on V. russelli venom PLA2 activity (in words): venom pre-incubated 5-10 minutes with increasing concentrations, Example 2; for IC50 / PLA2 ≥90% inhibition (concentration), V. russelli venom: 0.2 μg venom, 10 minute time point, Example 1
Method: as §7, §8, §3, §4

[7] = 6.75 μg venom, pre-incubation 5-10 min, Example 1
[8] = 15 μg venom, pre-incubation 5-10 min, Example 1
[9] = 30 μg venom, five hour time point, Example 1
[10] = venom pre-incubated 5-10 minutes with increasing concentrations, Example 2
[11] = asterisk: data obtained according to Example 2, five hour time point

## CC(=O)N[C@@H](CS)C(=O)O [N-acetyl-L-cysteine]
[1]; [7]
  Hyaluronidase IC50, N. kaouthia venom: 4503 µg/mL
  Hyaluronidase ≥90% inhibition (concentration), N. kaouthia venom: 4.8 mg/mL
[1]
  Effect on N. kaouthia venom hyaluronidase activity (in words): inhibited
[2]; [8]
  Hyaluronidase IC50, V. russelli venom: ~4989 µg/mL
  Hyaluronidase ≥90% inhibition (concentration), V. russelli venom: 6.0 to 9.6 mg/mL
[2]
  Effect on V. russelli venom hyaluronidase activity (in words): inhibited
[3]; [9]
  Gelatinase IC50, N. kaouthia venom: 1850 µg/mL
  Gelatinase ≥90% inhibition (concentration), N. kaouthia venom: 1.32 mg/mL
[3]; [10]
  Effect on N. kaouthia venom gelatinase activity (in words): inhibited
[4]; [9]
  Gelatinase IC50, V. russelli venom: 1870 µg/mL
  Gelatinase ≥90% inhibition (concentration), V. russelli venom: 2.31 mg/mL
[4]; [10]
  Effect on V. russelli venom gelatinase activity (in words): inhibited
[5]
  Effect on N. kaouthia venom PLA2 activity (in words): consistently enhanced
[6]; N-acetyl-L-cysteine alone
  Enhancement of PLA2 activities in V. russelli venom: 3-4 fold
[6]
  Effect on V. russelli venom PLA2 activity (in words): consistently enhanced

## O=C([O-])CC([S-])C(=O)[O-].[Au+].[Na+].[Na+] (stereo not drawn) [Sodium aurothiomalate, sodium aurothiomalate]
[1]; [7]
  Hyaluronidase ≥90% inhibition (concentration), N. kaouthia venom: 136.30 µM
  IC50: 42 µM
[1]
  Effect on N. kaouthia venom hyaluronidase activity (in words): inhibited
[2]; [8]
  Hyaluronidase ≥90% inhibition (concentration), V. russelli venom: 373.25 µM
  IC50: 147 µM
[2]
  Effect on V. russelli venom hyaluronidase activity (in words): inhibited
[3]; [11]
  Gelatinase ≥90% inhibition (concentration), N. kaouthia venom: >208 µM
  IC50: 47 ± 30.4 µM
[5]
  Effect on N. kaouthia venom PLA2 activity (in words): moderate, but statistically significant increase
[6]
  Effect on V. russelli venom PLA2 activity (in words): moderate, but statistically significant increase

## Cc1ccc(C(=O)Nc2ccc(S(=O)(=O)O)c3cc(S(=O)(=O)O)cc(S(=O)(=O)O)c23)cc1NC(=O)c1cccc(NC(=O)Nc2cccc(C(=O)Nc3cc(C(=O)Nc4ccc(S(=O)(=O)O)c5cc(S(=O)(=O)O)cc(S(=O)(=O)O)c45)ccc3C)c2)c1 [Suramin]
[5]
  IC50: 1520 ± 528 µM
  PLA2 ≥90% inhibition (concentration), N. kaouthia venom: 12.5 mM
[6]
  IC50: 2010 µM
  PLA2 ≥90% inhibition (concentration), V. russelli venom: 12.5 mM

## CC1=C(CC/C(C)=C/CCC2=CC[C@H](C3=CC(=O)O[C@H]3O)O[C@H]2O)C(C)(C)CCC1 [Manoalide]
[5]
  IC50: 777 µM
  PLA2 ≥90% inhibition (concentration), N. kaouthia venom: >1 mM
[6]
  IC50: 31.4 µM
  PLA2 ≥90% inhibition (concentration), V. russelli venom: 1 mM
